Values joined by “and” are separate entries in the source; they are usually repeats but may differ in a detail not shown here. Equal entries are not always repeated. Toxic doses and inconclusive results are not listed. No stated cut-off is given here; in the data, active means T/C of 150% or more; inactive means T/C below 125%.
Tested on: L1210 leukemia ip in BDF1 mice, survival T/C
Assay: NCI In Vivo Anticancer Drug Screen. Data for tumor model L1210 Leukemia (intraperitoneal) in B6D2F1 (BDF1) mice
Conditions: endpoint: mean survival time, higher = longer survival
How it was run: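 Transplantable tumor model; survival measured in treated vs vehicle control mice. Value = treated/control.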

[1] = dose: 50.0 mg/kg/injection, schedule: Q01DX009 (ip), vehicle: saline with Tween-80
[2] = dose: 100.0 mg/kg/injection, schedule: Q01DX009 (ip), vehicle: saline with Tween-80
[3] = dose: 200.0 mg/kg/injection, schedule: Q01DX009 (ip), vehicle: saline with Tween-80
[4] = dose: 100.0 mg/kg/injection, schedule: Q01DX001 (ip), vehicle: saline
[5] = dose: 100.0 mg/kg/injection, schedule: Q01DX009 (ip), vehicle: Klucel (hydroxypropylcellulose) (HPC)
[6] = dose: 100.0 mg/kg/injection, schedule: Q04DX003 (ip), vehicle: Klucel (hydroxypropylcellulose) (HPC)
[7] = dose: 200.0 mg/kg/injection, schedule: Q01DX001 (ip), vehicle: saline
[8] = dose: 200.0 mg/kg/injection, schedule: Q01DX009 (ip), vehicle: Klucel (hydroxypropylcellulose) (HPC)
[9] = dose: 200.0 mg/kg/injection, schedule: Q04DX003 (ip), vehicle: Klucel (hydroxypropylcellulose) (HPC)
[10] = dose: 400.0 mg/kg/injection, schedule: Q01DX001 (ip), vehicle: saline
[11] = dose: 400.0 mg/kg/injection, schedule: Q01DX009 (ip), vehicle: Klucel (hydroxypropylcellulose) (HPC)
[12] = dose: 400.0 mg/kg/injection, schedule: Q04DX003 (ip), vehicle: Klucel (hydroxypropylcellulose) (HPC)
[13] = dose: 100.0 mg/kg/injection, schedule: Q01DX001 (ip), vehicle: carboxymethylcellulose (CMC)
[14] = dose: 200.0 mg/kg/injection, schedule: Q01DX001 (ip), vehicle: carboxymethylcellulose (CMC)
[15] = dose: 400.0 mg/kg/injection, schedule: Q01DX001 (ip), vehicle: carboxymethylcellulose (CMC)
[16] = dose: 50.0 mg/kg/injection, schedule: Q04DX003 (ip), vehicle: saline
[17] = dose: 100.0 mg/kg/injection, schedule: Q04DX003 (ip), vehicle: saline
[18] = dose: 25.0 mg/kg/injection, schedule: Q01DX009 (ip), vehicle: saline
[19] = dose: 50.0 mg/kg/injection, schedule: Q01DX009 (ip), vehicle: saline
[20] = dose: 100.0 mg/kg/injection, schedule: Q01DX009 (ip), vehicle: saline
[21] = dose: 200.0 mg/kg/injection, schedule: Q04DX003 (ip), vehicle: saline

Measured: T/C

CCCCCCCCCCCCCCCCCC(=O)Oc1cccc2cccnc12
inactive: dose: 100.0 mg/kg/injection, schedule: Q04DX002 (ip), vehicle: saline with Tween-80 93 % of control | dose: 200.0 mg/kg/injection, schedule: Q04DX002 (ip), vehicle: saline with Tween-80 93 % of control | dose: 400.0 mg/kg/injection, schedule: Q04DX002 (ip), vehicle: saline with Tween-80 106 % of control

O=C(/C=N/O)Nc1cc(Cl)c(Cl)cc1Cl
inactive: [1] 97 % of control | [2] 94 % of control | dose: 100.0 mg/kg/injection, schedule: Q04DX003 (ip), vehicle: saline with Tween-80 98 % of control | [3] 94 % of control | dose: 200.0 mg/kg/injection, schedule: Q04DX003 (ip), vehicle: saline with Tween-80 103 % of control

OCC(F)(F)C(F)(F)C(F)(F)C(F)F
inactive: dose: 50.0 mg/kg/injection, schedule: Q01DX001 (ip), vehicle: saline 94 % of control | [4] 102 % of control | [5] 101 % of control | [6] 102 % of control | [7] 96 % of control | [8] 101 % of control | [9] 102 % of control | [10] 94 % of control | [11] 103 % of control | [12] 105 % of control

c1ccc2nc3ccccc3c-2cc1
inactive: dose: 100.0 mg/kg/injection, schedule: Q04DX003 (ip), vehicle: acetone 95 % of control | dose: 200.0 mg/kg/injection, schedule: Q04DX003 (ip), vehicle: acetone 98 % of control | dose: 400.0 mg/kg/injection, schedule: Q04DX003 (ip), vehicle: acetone 95 % of control

O=NN(CCCl)C(=O)Nc1ccc(C(=O)O)cc1
active: dose: 1.5 mg/kg/injection, schedule: Q01DX Z (ip), vehicle: saline 171 % of control | dose: 2.0 mg/kg/injection, schedule: Q01DX Z (ip), vehicle: saline 162 % of control | dose: 4.5 mg/kg/injection, schedule: Q01DX Z (ip), vehicle: carboxymethylcellulose (CMC) 151 % of control | dose: 5.0 mg/kg/injection, schedule: Q01DX001 (ip), vehicle: carboxymethylcellulose (CMC) 153 % of control and 182 % of control | dose: 15.0 mg/kg/injection, schedule: Q01DX001 (ip), vehicle: carboxymethylcellulose (CMC) 151 % of control and 168 % of control and 190 % of control | dose: 15.0 mg/kg/injection, schedule: Q## X001 (ip), vehicle: carboxymethylcellulose (CMC) 152 % of control | dose: 20.0 mg/kg/injection, schedule: Q01DX001 (ip), vehicle: carboxymethylcellulose (CMC) 152 % of control | dose: 30.0 mg/kg/injection, schedule: Q01DX001 (ip), vehicle: carboxymethylcellulose (CMC) 218 % of control and 227 % of control | dose: 30.0 mg/kg/injection, schedule: Q## X001 (ip), vehicle: carboxymethylcellulose (CMC) 191 % of control
inactive: dose: 2.5 mg/kg/injection, schedule: Q01DX001 (ip), vehicle: carboxymethylcellulose (CMC) 118 % of control and 124 % of control | dose: 3.75 mg/kg/injection, schedule: Q## X001 (ip), vehicle: carboxymethylcellulose (CMC) 106 % of control | dose: 9.0 mg/kg/injection, schedule: Q01DX Z (ip), vehicle: carboxymethylcellulose (CMC) 117 % of control

O=[N+]([O-])c1ccc(CSCc2ccc(Cl)cc2)cc1
inactive: [13] 97 % of control | [14] 97 % of control | [15] 94 % of control

CC(=O)OC(OC(C)=O)c1ccccn1
inactive: dose: 75.0 mg/kg/injection, schedule: Q01DX001 (ip), vehicle: saline 94 % of control | dose: 150.0 mg/kg/injection, schedule: Q01DX001 (ip), vehicle: saline 96 % of control | dose: 300.0 mg/kg/injection, schedule: Q01DX001 (ip), vehicle: saline 93 % of control

CC(O)COc1ccc(OCc2ccccc2)cc1 (centres undefined)
inactive: [5] 98 % of control | [6] 106 % of control | [8] 95 % of control | [9] 100 % of control | [11] 97 % of control | [12] 92 % of control

c1ccc(CNc2ncn[nH]2)cc1
inactive: [1] 95 % of control | [2] 103 % of control | [3] 95 % of control

C1=C(c2ccccc2)S/C(=C/c2ccccc2)S1
inactive: dose: 25.0 mg/kg/injection, schedule: Q01DX009 (ip), vehicle: saline with Tween-80 96 % of control | [1] 96 % of control | [16] 88 % of control | [4] 93 % of control | [2] 94 % of control | [17] 87 % of control | [7] 88 % of control | [10] 88 % of control

CC(=O)OC1C2OC3C=C(C)CCC3(CO)C(C)(C1O)C21CO1 (centres undefined)
inactive: dose: 0.8 mg/kg/injection, schedule: Q01DX009 (ip), vehicle: other 101 % of control | dose: 1.6 mg/kg/injection, schedule: Q01DX009 (ip), vehicle: other 104 % of control | dose: 3.2 mg/kg/injection, schedule: Q01DX009 (ip), vehicle: other 101 % of control | dose: 6.4 mg/kg/injection, schedule: Q01DX009 (ip), vehicle: other 114 % of control | dose: 12.8 mg/kg/injection, schedule: Q01DX009 (ip), vehicle: other 122 % of control | dose: 25.6 mg/kg/injection, schedule: Q01DX009 (ip), vehicle: other 122 % of control

NC(N)=Nc1ccc(C(=O)Oc2ccc([N+](=O)[O-])cc2Cl)cc1
inactive: [18] 94 % of control | [19] 97 % of control | [20] 87 % of control | [17] 96 % of control | [21] 94 % of control

CCOC(=O)NC(C)(CC)c1ccccc1 (centres undefined)
inactive: dose: 100.0 mg/kg/injection, schedule: Q01DX001 (ip), vehicle: other 105 % of control | dose: 200.0 mg/kg/injection, schedule: Q01DX001 (ip), vehicle: other 109 % of control | dose: 400.0 mg/kg/injection, schedule: Q01DX001 (ip), vehicle: other 117 % of control

Nc1cccc(S(=O)(=O)c2cccc(N)c2)c1
inactive: [5] 100 % of control | [6] 97 % of control | [8] 94 % of control | [9] 94 % of control | [11] 92 % of control | [12] 94 % of control

CC(N)CCC(C)(C)O (centres undefined)
inactive: [19] 93 % of control | [20] 90 % of control

C#CCOCC1CN(C)C(=O)O1 (centres undefined)
inactive: [18] 90 % of control | [19] 110 % of control | [16] 103 % of control | [20] 100 % of control | [17] 106 % of control | dose: 200.0 mg/kg/injection, schedule: Q01DX009 (ip), vehicle: saline 117 % of control | [21] 103 % of control | dose: 400.0 mg/kg/injection, schedule: Q01DX009 (ip), vehicle: saline 100 % of control | dose: 400.0 mg/kg/injection, schedule: Q04DX003 (ip), vehicle: saline 92 % of control

CN1CCC=C(CN(c2ccccc2)c2ccccc2)C1
inactive: [18] 93 % of control | dose: 25.0 mg/kg/injection, schedule: Q04DX003 (ip), vehicle: saline 92 % of control | [19] 100 % of control | [16] 96 % of control | [20] 91 % of control | [17] 95 % of control

Clc1ccc(Br)c(Cl)c1
inactive: [5] 98 % of control | [6] 94 % of control | [8] 94 % of control | [9] 109 % of control | [11] 92 % of control | [12] 93 % of control

Nc1cccc2cc3ccccc3nc12
inactive: dose: 25.0 mg/kg/injection, schedule: Q04DX003 (ip), vehicle: Klucel (hydroxypropylcellulose) (HPC) 102 % of control | dose: 50.0 mg/kg/injection, schedule: Q04DX003 (ip), vehicle: Klucel (hydroxypropylcellulose) (HPC) 92 % of control | [6] 86 % of control

Cc1cccc(NC(=O)NCCN(C)Cc2ccccc2)c1
inactive: dose: 50.0 mg/kg/injection, schedule: Q01DX001 (ip), vehicle: carboxymethylcellulose (CMC) 101 % of control | [13] 98 % of control | [14] 101 % of control | [15] 104 % of control

O=C(O)c1c(Br)c(Br)c(Br)c(Br)c1C(=O)Nc1cccc2c(O)cccc12
inactive: [5] 110 % of control | [8] 107 % of control | [11] 96 % of control
